Measured values from US10167247B2, “Solid forms of treprostinil” (United Therapeutics Corporation, priority 2013, dated 2019).
Each block holds one compound with its values, some of them ahead of it.

Experiments:
Assay type in all cases: physicochemical
[1] = Environmental stress (temperature / relative humidity), solid form by XRPD
Protocol: The mesophase treprostinil of FIG. 31 are formed, from top to bottom, from the following solutions: (1) 0.40 water activity slurry with acetone 2 days; (2) DCM slurry 60 to 30° C.; (3) 0.80 water activity slurry with isopropanol 7 days; (4) 1-propanol/water 1:1 v/v slurry ambient temperature; (5) Form B+A+mesophase 50° C. 7 days, (6) Acetonitrile slurry ambient temperature; (7) Form A 50° C. 15 hours; (8) Methanol/ethyl acetate evaporation; (9) Toluene crash precipitation from methyl ethyl ketone.
Solids were stressed in glass vials under various drying and relative humidity (RH) environments for specified times, generally monitoring weight change during stressing. Drying was done via ambient, P2O5, vacuum (ambient and elevated temperatures), and convection oven experiments, for which the only drying condition listed in the tables is the oven temperature. Ambient experiments were conducted by leaving samples exposed in a laboratory fume hood. Specific RH values were achieved by placing the sample inside sealed chambers containing saturated salt solutions or into separate chambers containing P2O5 powder for 0% RH. The salt solutions were selected and prepared based an ASTM standard procedure. For vacuum experiments, vials were covered with nylon filters to prevent potential solid loss. For the elevated temperature experiments, temperature was measured by a NIST-traceable thermometer. […]

[2] = Dynamic vapor sorption (DVS); details: for DVS weight loss: 95 to 5% RH
Protocol: DVS data were collected on a VTI SGA-100 Vapor Sorption Analyzer. NaCl and PVP were used as calibration standards. Samples were not dried prior to analysis. Sorption and desorption data were collected over a range from 5 to 95% RH (or 55 to 95% RH for Form B) at 10% RH increments under a nitrogen purge. The equilibrium criterion used for analysis was less than 0.0100% weight change in 5 minutes with a maximum equilibration time of 3 hours. Data were not corrected for the initial moisture content of the samples.

[3] = TG-IR heating, post-TG-IR XRPD; details: heated 25-97° C.
Protocol: Thermogravimetric infrared (TG-IR) analysis was performed on a TA Instruments thermogravimetric (TG) analyzer model 2050 interfaced to a Magna-IR 560® Fourier transform infrared (IR) spectrophotometer (Thermo Nicolet) equipped with an Ever-Glo mid/far IR source, a potassium bromide (KBr) beamsplitter, and a mercury cadmium telluride (MCT-A) detector. The IR wavelength verification was performed using polystyrene, and the TG calibration standards were nickel and Alumel™. The sample was placed in a platinum sample pan, and the pan was inserted into the TG furnace. The TG instrument was started first, immediately followed by the FT-IR instrument. The TG instrument was operated under a flow of helium at 90 and 10 cc/min for the purge and balance, respectively. The furnace was heated under helium at a rate of 20° C./minute to a final temperature of 97° C. IR spectra were collected approximately every 16 seconds for approximately 13 minutes. Each IR spectrum represents 16 co-added scans collected at a spectral resolution of 4 cm^−1. Volatiles were identified from a search of the High Resolution Nicolet Vapor Phase spectral library (v. 1990-1994).

[4] = Stability tests of anhydrous treprostinil on standing
Protocol: An anhydrous form of treprostinil has been previously described, e.g., in J. Org. Chem. 2004, 69, 1890-1902. The anhydrous form is not stable at room temperature. […] A larger amount of dimers can form at higher temperatures. However, dimer formation is negligible at 5° C. Therefore, anhydrous treprostinil must be refrigerated for storage and transport. In the past, anhydrous treprostinil had to be refrigerated and shipped with ice packs to maintain low (2° C.-8° C.) temperatures.

Solid form after stress (XRPD) ([1]; 97% RH 12 days): mesophase+weak Form B
SMILES: CCCCC[C@H](O)CC[C@@H]1[C@H]2Cc3cccc(OCC(=O)O)c3C[C@H]2C[C@H]1O [Mesophase treprostinil, 2-((1R,2R,3aS,9aS)-2-hydroxy-1-((S)-3-hydroxyoctyl)-2,3,3a,4,9,9a-hexahydro-1H-cyclopenta[b]naphthalen-5-yloxy)acetic acid]

DVS weight gain ([2]; 5 to 75% RH): 0.2% weight gain 5 to 75% RH
DVS weight gain ([2]; 75 to 95% RH): 4.6% weight gain 75 to 95% RH
DVS weight loss [2]: 0.5% weight loss 95 to 5% RH
post-DVS XRPD (solid form after DVS) ([2]; after sorption/desorption cycle): B + A
SMILES: CCCCC[C@H](O)CC[C@@H]1[C@H]2Cc3cccc(OCC(=O)O)c3C[C@H]2C[C@H]1O [Treprostinil Form C, 2-((1R,2R,3aS,9aS)-2-hydroxy-1-((S)-3-hydroxyoctyl)-2,3,3a,4,9,9a-hexahydro-1H-cyclopenta[b]naphthalen-5-yloxy)acetic acid]
DVS weight loss upon equilibration ([2]; equilibration at 5% RH): 0.1% weight loss upon equilibration at 5% RH

DVS weight gain ([2]; 5 to 95% RH): 0.7% weight gain 5 to 95% RH
DVS weight loss [2]: 0.6% weight loss 95 to 5% RH
Solid form after stress (XRPD) ([1]; 50° C. 15 hours): mesophase
Post-TG-IR XRPD (solid form after heating) [3]: mesophase
SMILES: CCCCC[C@H](O)CC[C@@H]1[C@H]2Cc3cccc(OCC(=O)O)c3C[C@H]2C[C@H]1O [Treprostinil monohydrate Form A, 2-((1R,2R,3aS,9aS)-2-hydroxy-1-((S)-3-hydroxyoctyl)-2,3,3a,4,9,9a-hexahydro-1H-cyclopenta[b]naphthalen-5-yloxy)acetic acid]

DVS weight gain ([2]; 55 to 95% RH): 0.4% weight gain 55 to 95% RH
DVS weight loss [2]: 0.6% weight loss 95 to 5% RH
SMILES: CCCCC[C@H](O)CC[C@@H]1[C@H]2Cc3cccc(OCC(=O)O)c3C[C@H]2C[C@H]1O [Treprostinil monohydrate Form B, 2-((1R,2R,3aS,9aS)-2-hydroxy-1-((S)-3-hydroxyoctyl)-2,3,3a,4,9,9a-hexahydro-1H-cyclopenta[b]naphthalen-5-yloxy)acetic acid]
DVS weight gain upon equilibration ([2]; equilibration at 55% RH): 0.3% weight gain upon equilibration at 55% RH

Dimer formation ([4]; 5° C.): negligible
Stability ([4]; 25° C., dimers formed upon standing): not stable
SMILES: CCCCC[C@H](O)CC[C@@H]1[C@H]2Cc3cccc(OCC(=O)O)c3C[C@H]2C[C@H]1O [anhydrous treprostinil, 2-((1R,2R,3aS,9aS)-2-hydroxy-1-((S)-3-hydroxyoctyl)-2,3,3a,4,9,9a-hexahydro-1H-cyclopenta[b]naphthalen-5-yloxy)acetic acid]
